Positions of bridges follow the written chain, without caps; N, C: chain ends. Non-standard residues stand in square brackets, D forms with d. Residues, ends and D or L forms follow the SMILES beside them. *: point of attachment. FITC = O=C1OC2(c3ccc(O)cc3Oc3cc(O)ccc32)c2ccc(NC(=S)*)cc21; R8 = C=CCCCCCC[C@@](C)(N)C(=O)O; S5 = C=CCCC[C@](C)(N)C(=O)O; AEEA = NCCOCCOCC(=O)O
Tests used:
Type in all cases: binding
[1] = tested on: pre-miR-21; test: EMSA with pre-miR-21; settings: fluorescein-labeled peptide 6 μM, pre-miR-21 3 μM
Protocol: (§1) Electrophoretic mobility shift assays (EMSAs) were performed using a Bio-Rad Mini-Protean gel system paired with a direct current (DC) power source (PowerPac™ HC, Bio-Rad). Typically, 6 μl solutions containing ds RNA (c = 3 μM) and fluorescein-labeled peptide (c = 6 μM) were incubated in binding buffer (10 mM Tris (pH 8.0), 0.5 mM EDTA, 12.5% glycerol and 150 mM KCl) at 4°C for 1 h. After incubation, bound RNA was resolved from peptide-free RNA using 10% non-denaturing polyacrylamide gels at 120 V in running buffer (25 mM Tris (pH 8.0), 200 mM glycine, 20 mM NaCl) at 4°C for 1 h. Visualization of fluorescent gel-bound species was conducted using a Typhoon Trio + fluorescence scanner (GE Healthcare Life Sciences). For nucleic acid visualization, gels were stained using 2 μl of SYBR™ gold nucleic acid gel dye (Molecular Probes) in 20 ml of TAE buffer (40 mM Tris, 1 mM EDTA, 20 mM acetic acid) for 45 min at RT before being visualized using a FluorChem™ gel documentation system (Alpha Innotech). To assess B3 binding to different ds RNA sequences (Supplementary Figure S20), 6 μl solutions containing hairpin RNA (c = 1 μM) and fluorescein-labeled B3 (c = 2 μM) were incubated in binding buffer (TAE and 10% glycerol) at RT for 1 h, and then resolved using 15% non-denaturing polyacrylamide gels (acrylamide/bis-acrylamide (19:1) in TAE) at 150 V in running buffer (TAE) at 4°C for 1.5 h. […]

[2] = tested on: ds RNA hairpins HP 1–5; test: EMSA with ds RNA hairpins HP 1-5; settings: fluorescein-labeled B3 2 μM, hairpin RNA 1 μM, TAE and 10% glycerol, RT 1 h
Protocol: as §1

[3] = target: pre-miR-21; test: ITC with pre-miR-21
Protocol: (§2) Isothermal titration calorimetry (ITC) was conducted using a MicroCal VP-ITC (Malvern Panalytical). Before measurement, oligonucleotide and peptide samples were dissolved in PBS and degassed using a ThermoVac (Malvern Panalytical) and heated to 30°C. N-terminally acetylated peptides (c = 3–12 μM) were then transferred into the sample cell and oligonucleotides (c = 12–72 μM) were transferred into the syringe. 35 Injections per measurement were performed at 30°C (8 μl injection volume, 2 s injection time, 180 s spacing, high feedback mode) with an initial delay of 60 s and a stirring speed of 307 rpm. Measurements were performed in triplicate. Using the MicroCal LLC ITC software (Origin; OriginLab Corporation), the heat associated with each injection was calculated by integrating the area under the curve in microcalories per second [μca/s] versus time [min] for each injection and then normalized to concentration. A ‘single set of identical binding sites’ model was used to fit the binding curves from which thermodynamic binding parameters (ΔG, ΔH, ΔS, N and Kd) were obtained.

[4] = target: ds miR-21; test: ITC with ds miR-21
Protocol: as §2

Compound	binding to pre-miR-21 in EMSA [1]	binding to ds RNA hairpins in EMSA [2]	Kd [3]	Kd [4]
CC(C)C[C@H](NC(=O)[C@]1(C)CCCC=CCCC[C@](C)(NC(=O)[C@H](CCC(=O)O)NC(=O)[C@H](CO)NC(=O)[C@@H]2CCCN2C(=O)[C@H](CO)NC(=O)[C@H](CCCCN)NC(=O)[C@H](Cc2c[nH]cn2)NC(=O)CNC(=O)[C@H](CCCNC(=N)N)NC(=O)[C@]2(C)CCCC=CCCC[C@](C)(NC(=O)[C@H](CCCCN)NC(=O)[C@H](Cc3c[nH]cn3)NC(=O)[C@H](CCCNC(=N)N)NC(=O)[C@H](CCCCN)NC(=O)[C@H](CCCNC(=N)N)NC(=O)[C@H](CCC(N)=O)NC(=O)[C@H](C)NC(=O)[C@H](CCC(N)=O)NC(=O)[C@H](CCCCN)NC(=O)[C@H](CCCCN)NC(=O)COCCOCCNC(=S)Nc3ccc4c(c3)C(=O)OC43c4ccc(O)cc4Oc4cc(O)ccc43)C(=O)N[C@@H](CC(N)=O)C(=O)N[C@@H](CCCNC(=N)N)C(=O)N[C@@H](CCCCN)C(=O)N2)C(=O)N[C@@H](CCCNC(=N)N)C(=O)N[C@@H](CCCNC(=N)N)C(=O)N[C@@H](CO)C(=O)N1)C(=O)N[C@@H](Cc1c[nH]c2ccccc12)C(=O)N[C@@H](Cc1c[nH]cn1)C(=O)N[C@@H](C)C(=O)N[C@@H](CCCNC(=N)N)C(N)=O [B3] ({FITC-AEEA}-KKQAQRKRHK[S5]NRK[S5]RGHKSPSE[S5]RRS[S5]LWHAR-NH2; staple 11-15, 24-28)	indicated pre–miRNA-binding	showed binding to each hairpin	75 ± 8 nM	18 ± 2 nM
CC(C)C[C@@H]1NC(=O)[C@@](C)(NC(=O)[C@H](CO)NC(=O)[C@H](CCCNC(=N)N)NC(=O)[C@H](CCCNC(=N)N)NC(=O)[C@H](CCC(N)=O)NC(=O)[C@H](CCC(=O)O)NC(=O)[C@H](CO)NC(=O)[C@@H]2CCCN2C(=O)[C@H](CO)NC(=O)[C@H](CCCCN)NC(=O)[C@H](Cc2c[nH]cn2)NC(=O)CNC(=O)[C@H](CCCNC(=N)N)NC(=O)[C@H](CCC(=O)O)NC(=O)[C@H](CCCCN)NC(=O)[C@H](CCCNC(=N)N)NC(=O)[C@H](CC(N)=O)NC(=O)[C@]2(C)CCCC=CCCCCCC[C@@](C)(NC(=O)[C@H](CCC(N)=O)NC(=O)[C@H](CCCCN)NC(=O)[C@H](CCCCN)NC(=O)COCCOCCNC(=S)Nc3ccc4c(c3)C(=O)OC43c4ccc(O)cc4Oc4cc(O)ccc43)C(=O)N[C@@H](CCC(N)=O)C(=O)N[C@@H](CCCNC(=N)N)C(=O)N[C@@H](CCCCN)C(=O)N[C@@H](CCCNC(=N)N)C(=O)N[C@@H](Cc3c[nH]cn3)C(=O)N[C@@H](CCCCN)C(=O)N2)CCCC=CCCC[C@@](C)(C(=O)N[C@@H](CCCNC(=N)N)C(N)=O)NC(=O)[C@H](Cc2c[nH]cn2)NC(=O)[C@H](Cc2c[nH]c3ccccc23)NC1=O [C1] ({FITC-AEEA}-KKQ[R8]QRKRHK[S5]NRKERGHKSPSEQRRS[S5]LWH[S5]R-NH2; staple 4-11, 28-32)	indicated pre–miRNA-binding	–	–	–
